In US20260008805A1, “ADENOSINE ANALOGS FOR THE TREATMENT OF DISEASE” (BIOINTERVENE, INC., priority 2022, published 2026):
Where two headings read alike, the source gives them in different places.

How the values were obtained:
[1] = molecular target: T1, human A3 receptors (Homo sapiens, UniProt P0DMS8); assay: Adenosine receptor binding assay ([3H]HEMADO competition); details: Cheng-Prusoff, read-out: hA3 Ki
T1 construct: expressed in transfected cells; host or cells: HEK-293 cells, stably transfected; membrane preparation
T1 sequence (P0DMS8 1-318): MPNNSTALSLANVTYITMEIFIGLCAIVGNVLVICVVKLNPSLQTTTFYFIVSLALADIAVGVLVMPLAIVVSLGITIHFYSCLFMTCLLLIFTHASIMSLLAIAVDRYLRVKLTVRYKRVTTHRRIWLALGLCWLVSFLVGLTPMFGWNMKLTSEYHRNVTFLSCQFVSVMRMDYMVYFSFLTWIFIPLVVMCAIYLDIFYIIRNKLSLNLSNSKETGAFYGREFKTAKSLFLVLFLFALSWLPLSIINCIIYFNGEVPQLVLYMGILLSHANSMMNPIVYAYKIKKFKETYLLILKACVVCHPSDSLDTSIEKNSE
Text: Materials and Reference Compounds: [^3H] HEMADO (obtained from (ARC, Cat: ART1456) and [3H] DPCPX (obtained from PerkinElmer Cat no. NET974250UC)). IB-MECA was obtained from Tocris (Bristol, UK) and N6-cyclopentyl adenosine (CPA) is obtained from Sigma-Alrich (Poole, UK). Cell culture media, G418 and hygromycin are obtained from Invitrogen (Paisley, UK). Fetal calf serum is obtained from Perbio Science (Cheshire, UK). All other reagents are obtained from Fisher Chemicals (Loughborough, UK).
The method followed is that of Yates L, Clark J H, Martin T J, James S, Broadley K J, Kidd E J. Radioligand binding and functional responses of ligands for human recombinant adenosine A3 receptors. Auton Autacoid Pharmacol. 2006; 26 (2): 191-200. Cells stably transfected with the human adenosine A3 or A1 receptor are grown in Dulbecco's modified Eagles medium with nutrient mixture F12 containing NaHCO3 and Glutamax. Media is supplemented with 10% fetal calf serum, geneticin (G418; 0.67 mg/mL), hygromycin (500 μg/mL) and adenosine deaminase (1 U/mL). Cells are maintained at 37° C. with 5% CO2 in air. Cells are harvested and homogenized in ice-cold Tris buffer [50 mM Tris, 150 mM NaCl, 1 mM ethylenediaminetetraacetic acid (EDTA), pH 7.4] supplemented with the peptidase inhibitors, 4-(2-aminoethyl)benzene sulfonylfluoride (1 mM) and bacitracin (0.1 mg/mL), using a Polytron homogenizer (3×10 s bursts). The homogenate is spun for 10 min (4° C.) at 500 g. The supernatant is retained and the pellet is re-suspended in the buffer, homogenized and spun as above. The combined supernatants are centrifuged for 15 min (4° C.) at 48,000 g. The resultant pellet is re-suspended in the buffer and centrifuged for a second time at 48,000 g. The membrane pellet is then suspended in Tris buffer containing no peptidase inhibitors or adenosine deaminase and stored at −80° C. at a protein concentration of 1 mg/mL.
Binding Assays: Radioligand-binding assays are performed using the adenosine A3 receptor agonist [^3H] HEMADO and the A1 receptor […] [^3H] DPCPX. Binding assays are conducted in a total volume of 100 μL containing a 50 mM Tris, pH 7.4 buffer with or without 10 mM MgCl2, 20 μg membranes and either 4.154 nM [3H] HEMADO (for the A3 receptor) or 1.6065 nM [^3H] DPCPX (for the A1 receptor). Assays are conducted at room temperature for 60 min (A1 receptor) or 120 min (A3 receptor) and terminated by the addition of 2 ml of ice-coldish buffer (50 mM Tris, pH 7.4 with or without 10 mM MgCl2) and rapid filtration over 0.03% polyethylenimine-treated Whatman GF/C filters using a Brandel cell harvester (Semat International Ltd., St Albans, UK). Filters are then ished three times with 2 ml of ice-cold buffer. The filter-bound radioactivity are counted using a Compugamma counter (LKB Wallac, Turku, Finland). Competition experiments are performed to investigate the ability of reference compounds and embodiments of the invention to inhibit [^3H] HEMADO binding. Non-specific binding are determined using the respective compound at its highest concentration.
Data Analysis: The Kd and Bmax values for binding data are calculated based upon the molar amounts of bound and free [^3H] HEMADO. […] IC50 and Ki values and Hill slopes for inhibition of the radioligand binding by the compounds of the invention are calculated from the ligand competition curves using the Excel spreadsheet and the Kd value calculated for either [^3H] HEMADO or [^3H] DPCPX. The results are expressed as a percent of control specific binding and as a percent inhibition of control specific binding obtained in the presence of the compounds of the invention. The IC50 values (concentration causing a half-maximal inhibition of control specific binding) and Hill coefficients (nH) are determined by non-linear regression analysis of the competition curves generated with mean replicate values using Hill equation curve fitting: […]

[2] = molecular target: T2, human adenosine A3 receptor (Homo sapiens, UniProt P0DMS8); assay: Intracellular cAMP levels (inhibition of forskolin-stimulated cAMP production); format: cell-based; details: Table 2, # = average between two data points; for EC50: CHO-K1 cells expressing human adenosine A3 receptor, forskolin 10 μM; for cAMP Efficacy (%): maximal response as percentage of the response produced by 100 nM IB-MECA
T2 construct: expressed in transfected cells; host or cells: CHO-K1 cells, stably transfected
T2 sequence (P0DMS8 1-318): T1 sequence (P0DMS8 1-318)
Text: The method followed is that published in Yates L, Clark J H, Martin T J, James S, Broadley K J, Kidd E J. Radioligand binding and functional responses of ligands for human recombinant adenosine A3 receptors. Auton Autacoid Pharmacol. 2006 April; 26 (2): 191-200.
Materials and Cell Culture: Adenosine deaminase is obtained from Roche (Lewes, UK). Forskolin is obtained from Sigma-Aldrich (Poole, UK). The sources of other materials are provided above in Example 1. CHO-K1 cells stably transfected with the human adenosine A3 receptor are grown in Dulbecco's modified Eagles medium with nutrient mixture F12 containing NaHCO3 and Glutamax. Media is supplemented with 10% fetal calf serum, geneticin (G418; 0.67 mg/mL), hygromycin (500 μg/mL) and adenosine deaminase (1 U/mL). Cells are maintained at 37° C. with 5% CO2 in air.
CAMP Measurements: Intracellular cAMP production is measured directly using a non-acetylation cAMP enzyme immunoassay (Amersham Biosciences, Little Chalfont, UK). Cultured CHO cells expressing human adenosine A3 receptors are allowed to plate overnight in 96-well plates in culture medium containing adenosine deaminase. Twenty-four hours later, they are incubated with adenosine analogues or compounds of the invention (0.1 nM-1 μM) for 5 min at 37° C., followed by incubation with forskolin (10 μM) for 10 min. The cells are then lysed with 200 μL of lysis reagent 1 provided with the kit for 10 min to release intracellular CAMP. Aliquots of the supernatants are then transferred to a 96-well microtitre plate coated with donkey anti-rabbit IgG; 100-μL cAMP standards (12.5-3200 fmol/well) are also added to the microtitre plate; 100 μL of rabbit anti-cAMP antibody is added to all wells and incubated at 2-5° C. for 2 h. The antiserum is made up in lysis reagent 2, which sequesters the key component in lysis reagent 1 and ensures that CAMP is free for subsequent analysis. Then 50 μL of cAMP peroxidase conjugate is added to all wells and left to incubate for 60 min at 2-5° C. to allow competition for the antibody between the un-labelled and horse radish peroxidase (HRP)-labelled cAMP. Wells are then ished with buffer and 150 μL of enzyme substrate containing 3,3′,5,5′-tetramethylbenzidine/hydrogen peroxide in 20% (v/v) dimethylformamide is added to each well and left to incubate for 60 min on a Titramax 100 microtitre plate shaker (Heidolph Instruments, Schwabach, Germany) at room temperature for color development. The reaction is stopped by the addition of 100 μL of 1 M sulfuric acid and the optical density (OD) read at 450 nm on a spectrophotometric MRX microplate reader (Dynex Technologies, Chantilly, VA, USA).
Analyses: Each sample/standard was analyzed in duplicate and the resulting OD values averaged. The percent bound (B/B0) for each standard and sample was calculated using the following relationship:
[formula] • where B is the specific OD for standard/sample and B0 is the specific OD for the zero standard. A standard curve was generated by plotting % B/B0 as a function of the log fmol cAMP standard per well. The fmol per well value for cAMP in each sample was then read from the graph. The results are expressed as a percent of control agonist response: (measured response/control response)*100 in the presence of the compounds of the invention. Concentration-response curves for inhibition of cAMP production were constructed for all compounds of the invention and reference compounds. The EC50 values (concentration producing a half-maximal response) were determined by non-linear regression analysis of the concentration-response curves generated with mean replicate values using Hill equation curve fitting, according to the equation:
[formula] • where Y=response, A=left asymptote of the curve, D=right asymptote of the curve, C=compound concentration, and C50=EC50, and nH=slope factor. […]

[3] = Table 2, membranes of HEK-293 cells expressing human A3 receptor
[4] = Table 1, membranes of HEK-293 cells expressing human A3 receptor

Structure (SMILES) | Ki [1, 3] [nM] | EC50 [2] [nM] | cAMP Efficacy (%) [2] | Ki [1, 4] [nM]
CNC(=O)[C@H]1O[C@@H](n2cnc3c4[nH]c(C)cc4c(Cl)nc32)[C@H](O)[C@@H]1O [1A*] | 1.79 |  |  | 
CNC(=O)[C@@]12C[C@@H]1[C@@H](n1cnc3c4[nH]c(C)cc4c(Cl)nc31)[C@H](O)[C@@H]2O [2A*] | 0.543 |  |  | 
CC1Cc2c(Cl)nc3c(ncn3[C@H]3[C@H](O)[C@H](O)[C@]4(CO)C[C@H]34)c2N1 (some centres unmarked) [3A*] | 65.7 |  |  | 
Cc1cc2c(C#N)nc3c(ncn3[C@H]3[C@H](O)[C@H](O)C4C[C@@H]43)c2[nH]1 (some centres unmarked) [4A*] | 1.09 |  |  | 
CNC(=O)[C@@]12C[C@@H]1[C@@H](n1cnc3c4c(c(Cl)nc31)CC(C)N4)[C@H](O)[C@@H]2O (some centres unmarked) [5A*] | 3.84 | 0.82 | 105.62% | 
Cc1cc2c(Cl)nc3c(ncn3[C@@H]3O[C@H](CO)[C@@H](O)[C@H]3O)c2[nH]1 [6A*] | 1.33 | 0.38 | 102.76% | 
Cc1cc2c(C#CC3CC3)nc3c(ncn3[C@H]3[C@H](O)[C@H](O)C4C[C@@H]43)c2[nH]1 (some centres unmarked) [7A*] | 0.619 | 0.91 | 47.98% | 
CNC(=O)[C@@]12C[C@@H]1[C@@H](n1cnc3c4c(c(Cl)nc31)C(O)CC(C)N4)[C@H](O)[C@@H]2O (some centres unmarked) [8A* and 8B*] | 5.84 | 6 | 107.96% | 
O[C@H]1[C@H](n2cnc3c4[nH]c(Cc5ccccc5)cc4c(Cl)nc32)[C@H]2CC2[C@H]1O (some centres unmarked) [9A*] | 5.34 | 2.15 | 74.92% | 
CNC(=O)[C@@]12C[C@@H]1[C@@H](n1cnc3c4c(c(Cl)nc31)CCC(C)N4)[C@H](O)[C@@H]2O (some centres unmarked) [10A*] | 2 | 0.48 | 105.25% | 
CNC(=O)[C@@]12C[C@@H]1[C@@H](n1cnc3c4c(c(Cl)nc31)C(=O)CC(C)N4)[C@H](O)[C@@H]2O (some centres unmarked) [11A*] | 3.36 |  |  | 
CC1Cc2c(Cl)nc3c(ncn3[C@H]3[C@H](O)[C@H](O)C4C[C@@H]43)c2N1 (some centres unmarked) [12A*] | 14.8 | 11.4 | 63.56% | 
CC1CC(=O)c2c(Cl)nc3c(ncn3[C@@H]3[C@@H](O)[C@@H](O)[C@@]4(CO)C[C@@H]34)c2N1 (some centres unmarked) [13A*] | 24.1 |  |  | 
Cc1cc2cnc3c(ncn3[C@H]3[C@H](O)[C@H](O)C4C[C@@H]43)c2[nH]1 (some centres unmarked) [14A*] | 2.56 | 2.03 | 87.04% | 
Cc1cc2c(Cl)nc3c(ncn3[C@H]3[C@H](O)[C@H](O)C4C[C@@H]43)c2[nH]1 (some centres unmarked) [15A*] | 2.27 | 0.2 | 94.66^# % | 
CC1CCc2c(Cl)nc3c(ncn3[C@H]3[C@H](O)[C@H](O)C4C[C@@H]43)c2N1 (some centres unmarked) [16A*] | 45.7 | 5.36 | 55.74% | 
CCOc1nc2c(ncn2[C@H]2[C@H](O)[C@H](O)C3C[C@@H]32)c2[nH]c(C)cc12 (some centres unmarked) [21A*] | 36 |  |  | 
Cc1nc2c(Cl)nc3c(ncn3[C@H]3[C@H](O)[C@H](O)C4C[C@@H]43)c2[nH]1 (some centres unmarked) [22A*] | 1.8 |  |  | 
O[C@H]1[C@H](n2cnc3c4[nH]c(C(F)F)cc4c(Cl)nc32)[C@H]2CC2[C@H]1O (some centres unmarked) [24A*] | 0.916 |  |  | 
Cc1cc2c(Cl)nc3c(ncn3[C@H]3[C@H](O)[C@H](O)[C@]4(C(N)=O)C[C@H]34)c2[nH]1 [25A*] | 24.2 | 4.15 | 96.54% | 
Cc1cc2c(Cl)nc3c(ncn3[C@H]3[C@H](O)[C@H](O)[C@]4(c5ncnn5C)C[C@H]34)c2[nH]1 [Compound 7B] |  |  |  | 151
CCNc1cc(Cl)nc2c1ncn2[C@H]1[C@H](O)[C@H](O)[C@]2(c3nnnn3C)C[C@H]12 [Compound 11B] |  |  |  | > 806
